According to US12258354B2, “AhR modulators” (IDEAYA BIOSCIENCES, INC., priority 2018, dated 2025):

What follows are molecules tested against T1, hAhR (Homo sapiens, UniProt P35869) (assay: DRE-luciferase transcriptional reporter assay in HEPG2 DRE-Luc cells, TCDD-induced (antagonist mode)). Settings: relative IC50, 3 nM TCDD, 24-hour incubation, firefly luciferase readout.
T1 construct: Stably integrated DRE-luciferase cell lines were generated by transducing the both cell lines with Cignal XRE luciferase reporter; endogenous in cells; host or cells: HEPG2 DRE-Luc cells (only the XRE luciferase reporter was transduced)
T1 sequence (P35869 11-848): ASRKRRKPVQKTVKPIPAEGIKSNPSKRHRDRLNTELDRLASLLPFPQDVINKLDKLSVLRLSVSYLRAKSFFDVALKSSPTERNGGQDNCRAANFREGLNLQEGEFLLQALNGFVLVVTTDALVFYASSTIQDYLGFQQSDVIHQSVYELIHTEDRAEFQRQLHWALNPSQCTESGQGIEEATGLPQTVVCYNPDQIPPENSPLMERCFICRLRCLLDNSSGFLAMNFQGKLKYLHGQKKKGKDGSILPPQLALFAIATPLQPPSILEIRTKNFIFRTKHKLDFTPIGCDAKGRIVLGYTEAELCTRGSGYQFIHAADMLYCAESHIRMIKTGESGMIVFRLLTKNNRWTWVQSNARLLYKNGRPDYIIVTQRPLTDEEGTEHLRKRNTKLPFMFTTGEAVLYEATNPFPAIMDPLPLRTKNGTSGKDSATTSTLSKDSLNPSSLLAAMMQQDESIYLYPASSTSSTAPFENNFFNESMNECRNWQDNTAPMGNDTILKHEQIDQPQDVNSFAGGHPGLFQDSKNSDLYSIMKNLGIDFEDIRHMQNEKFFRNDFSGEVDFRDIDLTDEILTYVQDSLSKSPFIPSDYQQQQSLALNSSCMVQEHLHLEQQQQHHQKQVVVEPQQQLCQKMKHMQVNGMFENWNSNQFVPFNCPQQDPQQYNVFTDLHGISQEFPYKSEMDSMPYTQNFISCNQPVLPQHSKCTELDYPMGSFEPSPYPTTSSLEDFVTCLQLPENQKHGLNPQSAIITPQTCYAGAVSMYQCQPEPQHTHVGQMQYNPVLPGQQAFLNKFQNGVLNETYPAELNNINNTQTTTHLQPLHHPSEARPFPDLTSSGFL
Assay type: cell-based
Experimental: HEPG2 and HEPA1C1C7 cells were maintained in MEM and αMEM without nucleosides supplemented with 10% heat inactivated FBS respectively. Stably integrated DRE-luciferase cell lines were generated by transducing the both cell lines with Cignal XRE luciferase reporter (Qiagen) lentiviral particles according to the manufacturer protocol. For both cell lines stably integrated reporter cell lines were selected for the presence of 2 μg/mL puromycin. Following selection of stably integrated cell line pools, clonal cell lines were isolated by limiting dilution in 96-well plates. Transcriptional assays were performed by seeding 100 μL of cells at a density of 250,000 or 100,000 cells/mL, for HEPG2 and HEPA1C1C7 DRE-Luc cells respectively, into 96-well cell culture plates in OptiMEM supplemented with 0.5% heat inactivated FBS and allowed to attach overnight. For modulator assays, the compounds were added in a semi-log dose response using a D300e Digital Dispenser (Tecan) followed normalization with vehicle (DMSO). Immediately following compound addition 10 μL of 2,3,7,8-Tetrachlorodibenzo-p-dioxin (TCDD) was added to the cells to a final concentration of 3 nM or 0.3 nM for the HEPG2 and HEPA1C1C7 DRE-Luc cells respectively. Following 24-hour incubation, the medium was removed and the cells were lysed in 25 μL of Reporter Lysis Buffer (Promega). Firefly luciferase activity was measured immediately following the addition of 50 μL Luciferase Assay Reagent (Promega). The percent maximal activity for each point was determined using the following equation: (RLUsample−RLUvehicle−TCDD)/(RLUvehicle+TCDD RLUvehicle−TCDD)*100. The relative IC50, defined as the compound concentration required to reduce the TCDD induced response between the top and bottom plateau of each individual dose response curve by half, for each compound was determined using Prism 7 (GraphPad Software).

Cc1cc(-c2ncc3cc(C(F)(F)F)ccc3n2)ccc1N1CCn2ncc(C(N)=O)c2C1=O [compound 066, 5-(2-methyl-4-(6-(trifluoromethyl)quinazolin-2-yl)phenyl)-4-oxo-4,5,6,7-tetrahydropyrazolo[1,5-a]pyrazine-3-carboxamide] was tested. Which IC50 did it give?
Its IC50 is under 0.2 µM.

How did the IC50 turn out when Cc1cc(-c2ncc3cc(C(F)(F)F)ccc3n2)ccc1N1CCc2cnn(C)c2C1=O [compound 015, 1-methyl-6-(2-methyl-4-(6-(trifluoromethyl)quinazolin-2-yl)phenyl)-1,4,5,6-tetrahydro-7H-pyrazolo[3,4-c]pyridin-7-one] was run?
Its IC50 is under 0.2 µM.

With Cc1cc(-c2ncc3cc(C(F)(F)F)ccc3n2)ccc1N1CC(CO)n2ncc(C)c2C1=O (centres unmarked) [Example 114, 7-(hydroxymethyl)-3-methyl-5-(2-methyl-4-(6-(trifluoromethyl)quinazolin-2-yl)phenyl)-6,7-dihydropyrazolo[1,5-a]pyrazin-4 (5H)-one] as the molecule, how does the IC50 read?
Its IC50 is under 0.2 µM.

Which IC50 does the source give for Cc1cc(-c2ccc3nc(C(F)(F)F)cc(C)c3n2)ccc1N1CCOc2cnn(C)c2C1=O [compound 031, 1-methyl-7-(2-methyl-4-(8-methyl-6-(trifluoromethyl)-1,5-naphthyridin-2-yl)phenyl)-6,7-dihydro-1H-pyrazolo[3,4-f][1,4]oxazepin-8 (5H)-one] here?
The IC50 was under 0.2 µM.

For Cc1cc(-c2ncc3cc(C(F)(F)F)ccc3n2)ccc1N1CCn2nc(C(C)O)c(C)c2C1=O (centres unmarked) [compound 058, 2-(1-hydroxyethyl)-3-methyl-5-(2-methyl-4-(6-(trifluoromethyl)-quinazolin-2-yl)phenyl)-6,7-dihydropyrazolo[1,5-a]pyrazin-4 (5H)-one], which IC50 is on record?
Its IC50 is under 0.2 µM.

Which IC50 does the source give for Cc1cc(N2CCOc3cnn(C)c3C2=O)c(C)cc1-c1ccc2nc(C(F)(F)F)ccc2n1 [compound 032, 7-(2,5-dimethyl-4-(6-(trifluoromethyl)-1,5-naphthyridin-2-yl)phenyl)-1-methyl-6,7-dihydro-1H-pyrazolo[3,4-f][1,4]oxazepin-8 (5H)-one] here?
Its IC50 is 1 to 10 µM.

With Cc1cc(N2CCn3ncc(C)c3C2=O)c(C)cc1-c1ccc2cc(C(F)(F)F)ccc2n1 [compound 023, 5-(2,5-dimethyl-4-(6-(trifluoromethyl)quinolin-2-yl)phenyl)-3-methyl-6,7-dihydropyrazolo[1,5-a]pyrazin-4 (5H)-one] as the molecule, how does the IC50 read?
Its IC50 is 1 to 10 µM.

Which IC50 does the source give for Cc1cc(-c2ncc3cc(C(F)(F)F)ccc3n2)ccc1N1CCOc2cnn(CC#N)c2C1=O [compound 036, 2-(7-(2-methyl-4-(6-(trifluoromethyl)quinazolin-2-yl)phenyl)-8-oxo-5,6,7,8-tetrahydro-1H-pyrazolo[3,4-f][1,4]oxazepin-1-yl)acetonitrile] here?
Its IC50 is under 0.2 µM.

Cc1cc(-c2ncc3cc(C(F)(F)F)ccc3n2)ccc1N1CCn2nc(CN3CCCC4(COC4)C3)c(C)c2C1=O [Example 110, 2-((2-oxa-6-azaspiro[3.5]nonan-6-yl)methyl)-3-methyl-5-(2-methyl-4-(6-(trifluoro-methyl)quinazolin-2-yl)phenyl)-6,7-dihydropyrazolo[1,5-a]pyrazin-4 (5H)-one] was tested. Which IC50 did it give?
The IC50 was under 0.2 µM.

How did the IC50 turn out when Cc1cc(-c2ncc3nc(C(F)(F)F)ccc3n2)ccc1N1CCc2cnn(C)c2C1=O [compound 004, 1-methyl-6-(2-methyl-4-(6-(trifluoromethyl)pyrido[3,2-d]pyrimidin-2-yl)phenyl)-1,4,5,6-tetrahydro-7H-pyrazolo[3,4-c]pyridin-7-one] was run?
The IC50 was under 0.2 µM.

With Cc1cc(-c2ncc3cc(C(F)(F)F)ccc3n2)ccc1N1CCn2nc(C(=O)O)c(C)c2C1=O [compound 060, 3-methyl-5-(2-methyl-4-(6-(trifluoromethyl)quinazolin-2-yl)phenyl)-4-oxo-4,5,6,7-tetrahydropyrazolo[1,5-a]pyrazine-2-carboxylic acid] as the molecule, how does the IC50 read?
The IC50 was 0.2 to 0.5 µM.

With Cc1cc(-c2ccc3nc(C(F)(F)F)ccc3n2)ccc1N1CCOc2cn(C)nc2C1=O [compound 048, 2-methyl-7-(2-methyl-4-(6-(trifluoromethyl)-1,5-naphthyridin-2-yl)phenyl)-6,7-dihydro-2H-pyrazolo[3,4-f][1,4]oxazepin-8 (5H)-one] as the molecule, how does the IC50 read?
The IC50 was under 0.2 µM.

Cc1cnn2c1C(=O)N(c1ccc(-c3ncc4cc(C(F)(F)F)ccc4n3)cc1F)CC2 [compound 013, 5-(2-fluoro-4-(6-(trifluoromethyl)quinazolin-2-yl)phenyl)-3-methyl-6,7-dihydropyrazolo[1,5-a]pyrazin-4 (5H)-one] was tested. Which IC50 did it give?
The IC50 was under 0.2 µM.

For Cc1cc(N2CCn3ncc(C)c3C2=O)c(F)cc1-c1ccc2nc(C(F)(F)F)cc(C)c2n1 [compound 022, 5-(2-fluoro-5-methyl-4-(8-methyl-6-(trifluoromethyl)-1,5-naphthyridin-2-yl)phenyl)-3-methyl-6,7-dihydropyrazolo[1,5-a]pyrazin-4 (5H)-one], which IC50 is on record?
The IC50 was under 0.2 µM.

How did the IC50 turn out when Cc1cc(-c2ncc3cc(C(F)(F)F)ccc3n2)ccc1N1CCn2nc(CN(C)C)c(C)c2C1=O [compound 063, 2-((dimethylamino)methyl)-3-methyl-5-(2-methyl-4-(6-(trifluoromethyl)-quinazolin-2-yl)phenyl)-6,7-dihydropyrazolo[1,5-a]pyrazin-4 (5H)-one] was run?
The IC50 was under 0.2 µM.

Which IC50 does the source give for Cc1cc(N2CCn3ncc(C)c3C2=O)c(F)cc1-c1ncc2cc(C(F)(F)F)ccc2n1 [compound 025, 5-(2-fluoro-5-methyl-4-(6-(trifluoromethyl)quinazolin-2-yl)phenyl)-3-methyl-6,7-dihydropyrazolo[1,5-a]pyrazin-4 (5H)-one] here?
Its IC50 is under 0.2 µM.

With Cc1cc(-c2ccc3nc(C(F)(F)F)ccc3n2)ccc1N1C(=O)c2[nH]ncc2OCC1C (centres unmarked) [compound 045, 6-methyl-7-(2-methyl-4-(6-(trifluoromethyl)-1,5-naphthyridin-2-yl)phenyl)-6,7-dihydro-1H-pyrazolo[3,4-f][1,4]oxazepin-8 (5H)-one] as the molecule, how does the IC50 read?
The IC50 was under 0.2 µM.

Which IC50 does the source give for “2-((2-hydroxy-2-azaspiro[3.3]heptan-2-yl)methyl)-3-methyl-5-(2-methyl-4-(6-(trifluoromethyl)pyrido[3,2-d]pyrimidin-2-yl)phenyl)-6,7-dihydropyrazolo[1,5-a]pyrazin-4 (5H)-one [Example 109]” here?
The IC50 was under 0.2 µM.

For Cc1cc(-c2ncc3cc(C(F)(F)F)ccc3n2)ccc1N1CCn2nc(C(C)O)cc2C1=O (centres unmarked) [compound 092, 2-(1-hydroxyethyl)-5-(2-methyl-4-(6-(trifluoromethyl)quinazolin-2-yl)phenyl)-6,7-dihydropyrazolo[1,5-a]pyrazin-4 (5H)-one], which IC50 is on record?
The IC50 was under 0.2 µM.

For Cc1cc(-c2ncc3cc(C(F)(F)F)ccc3n2)ccc1N1CCn2ncc(C3NC(=O)NC3=O)c2C1=O (centres unmarked) [Example 94, 5-(5-(2-methyl-4-(6-(trifluoromethyl)quinazolin-2-yl)phenyl)-4-oxo-4,5,6,7-tetrahydropyrazolo[1,5-a]pyrazin-3-yl)imidazolidine-2,4-dione], which IC50 is on record?
The IC50 was under 0.2 µM.

Which IC50 does the source give for Cc1cc(N2CCc3cnn(C)c3C2=O)c(F)cc1-c1ccc2nc(C(F)(F)F)ccc2n1 [compound 011, 6-(2-fluoro-5-methyl-4-(6-(trifluoromethyl)-1,5-naphthyridin-2-yl)phenyl)-1-methyl-1,4,5,6-tetrahydro-7H-pyrazolo[3,4-c]pyridin-7-one] here?
Its IC50 is under 0.2 µM.

Which IC50 does the source give for Cc1cc(-c2ncc3cc(C(F)(F)F)ccc3n2)ccc1N1CCOc2cn(CC(=O)O)nc2C1=O [compound 078, 2-(7-(2-methyl-4-(6-(trifluoromethyl)quinazolin-2-yl)phenyl)-8-oxo-5,6,7,8-tetrahydro-2H-pyrazolo[3,4-f][1,4]oxazepin-2-yl)acetic acid] here?
Its IC50 is 1 to 10 µM.

Which IC50 does the source give for Cc1cc(-c2ccc3nc(C(F)(F)F)ccc3n2)ccc1N1CCc2cnn(C)c2C1=O [compound 027, 1-methyl-6-(2-methyl-4-(6-(trifluoromethyl)-1,5-naphthyridin-2-yl)phenyl)-1,4,5,6-tetrahydro-7H-pyrazolo[3,4-c]pyridin-7-one] here?
Its IC50 is under 0.2 µM.
